Laboratory results taken from patent EP3928779A1 (Chugai Seiyaku Kabushiki Kaisha, priority 2014, dated 2016).

Columns and labels:
[1] = test system: rat small-intestinal brush border membrane vesicles; assay: Inhibitory effect on 33PO4 uptake into rat small-intestinal brush border membrane vesicles (rapid filtration method); assay type: biochemical; conditions: 33PO4 uptake into rat small-intestinal BBMVs; test compound 1 µM; reacted for 60 seconds
Procedure, shortened: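 Uptake of ^33PO4 was measured by rapid filtration and liquid scintillation counting of filter-retained vesicles, after quenching with ice-cold 110 mM NaCl/1 mM KH2PO4/10 mM HEPES pH 7.5. Vesicles were brush border membranes from the upper small intestine of female Wistar rats aged 4–5 weeks.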

[2] = test system: chronic kidney disease model rat; assay: Suppressive effect on rise in serum creatinine concentration of chronic kidney disease model rat; assay type: in vivo; conditions: suppression of a rise in serum creatinine concentration, dosage 0.1% in feed for 14 weeks
Description: (§1) A group given feed non-supplemented with the test compound was used as a reference pathological group, and a group neither subjected to the kidney removal nor antibody administration and given feed non-supplemented with the test compound was used as a normal group. Fourteen weeks after the start of administration of the test compound, blood was collected from the abdominal aorta and serum was collected. As an indicator of renal damage, serum creatinine concentrations were measured by an enzyme assay (creatinase-sarcosine oxidase-POD method). The rate of suppression of a rise in serum creatinine concentration was determined according to the following expression: Rate (%) of suppression of a rise in serum creatinine concentration = (1−[(Serum creatinine concentration of the test compound−treated pathological group)−(Serum ceatinine concentration of the […])]/[(Serum creatinine concentration of the reference pathological group)−(Serum creatinine concentration of the normal group)]) × 100 [formula]
As a result, the test compound was confirmed to have a suppressive effect on a rise in serum creatinine concentration, namely, a suppressive effect on renal damage. […]

[3] = test system: chronic kidney disease model rat; assay: Suppressive effect on rise in serum parathyroid hormone concentration of chronic kidney disease model rat; assay type: in vivo; conditions: suppression of a rise in serum parathyroid hormone concentration
Description: as §1
Using serum collected from the same animal as that in test example 7 after 14 weeks from the start of administration of the test compound, concentrations of serum parathyroid hormone were measured by the ELISA method. […]

[4] = test system: chronic kidney disease model rat; assay: Suppressive effect on calcium deposition in blood vessel of chronic kidney disease model rat; assay type: in vivo; conditions: suppression of calcium deposition in blood vessel (thoracic aorta)
Description: as §1
From the same animal as that in Test Example 7, the thoracic aorta was collected 14 weeks after the start of administration of the test compound, and the dry weight was measured. […]

[5] = test system: Adenine-induced renal failure rats; assay: Suppressive effect on rise in serum phosphorus concentration by combined use with sevelamer carbonate (adenine-induced renal failure rat); assay type: in vivo; conditions: 14 days
Excerpt: (§2) Adenine was forcedly administered orally to each Wistar male rat (7-8 weeks old) to impair renal functions and thereby prepare a hyperphosphatemia model (Katsumata K, Kusano K, Hirata M, Tsunemi K, Nagano N, Burke SK, Fukushima N. Sevelamer hydrochloride prevents ectopic calcification and renal osteodystrophy in chronic renal failure rats. Kidney Int. 2003 Aug; 64 (2): 441-50). Each test compound was mixed at a ratio of 0.1% of mass concentration with feed. The animal was fed with a given amount of the feed for 3 days. A group given feed non-supplemented with a test compound was used as a reference pathological group, and an adenine-unadministered group given feed non-supplemented with a test compound was used as a normal group. 3 days after the start of administration of the test compound, blood was collected from the jugular vein, and serum was collected. Serum phosphorus concentrations were measured by the Fiske-Subbarow method. The rate of suppression of a rise in serum phosphorus concentration was determined according to the following expression: Rate (%) of suppression of a rise in serum phosphorus concentration = (1−[(Serum phosphorus concentration of the test compound−treated pathological group)−(Serum phosphorus concentration of the normal group)]/[(Serum phosphorus concentration of the reference pathological group)−(Serum phosphorus concentration of the normal group)]) × 100 [formula]
Adenine-induced renal failure rats were prepared in the same manner as in Test Example 5. […] Serum phosphorus concentrations were measured by the Fiske-Subbarow method. The rate of suppression of a rise in serum phosphorus concentration was determined according to the following expression: Rate (%) of suppression of a rise in serum phosphorus concentration = (1−[(Serum phosphorus concentration of the compound−treated pathological group)−(Serum phorphorus concentration of the normal group)]/[(Serum phosphorus concentration of the reference pathological group)−(Serum phosphorous concentration of the normal group)]) × 100 [formula] […]

[6] = test system: adenine-induced renal failure rat; assay: Suppressive effect on rise in serum phosphorus concentration of adenine-induced renal failure rat (0.1% in feed, 3 days); assay type: in vivo; conditions: feed or water, 72 h, adenine-induced renal failure Wistar male rat, test compound 0.1% of mass concentration in feed for 3 days, Fiske-Subbarow method, read-out: rate (%) of suppression of a rise in serum phosphorus concentration
Excerpt: as §2, with “([…],” for “(Katsumata K, Kusano K, Hirata M, Tsunemi K,”, “(1-[(Serum” for “(1−[(Serum”, “compound-treated” for “compound−treated”, “group)-(Serum” for “group)−(Serum”, “[formula] As a result, each test compound was confirmed to have a suppressive effect on a rise in serum phosphorus concentration. […]” for “[formula]”

[7] = dosage 0.1% in feed for 14 weeks
[8] = dosage 0.3% in feed for 14 weeks

| Compound | Rate of uptake inhibition (%) (1 µM) [1] | Rate of inhibition (%) [2] [%] | Rate of inhibition (%) [3, 7] [%] | Rate of inhibition (%) [3, 8] [%] | Rate of inhibition (%) [4, 7] [%] | Rate of inhibition (%) [4, 8] [%] | Suppression rate of rise in serum phosphorus concentration (%) ([5]; test compound 0.05% by mass in combination with sevelamer carbonate 0.5% by mass in feed) | Suppression rate of rise in serum phosphorus concentration (%) ([5]; test compound 0.05% by mass in feed alone (sevelamer carbonate 0%)) | Suppression rate of rise in serum phosphorus concentration (%) ([5]; test compound 0.1% by mass in feed alone (sevelamer carbonate 0%)) | inhibition in vivo at 0.1 % in feed [6] [%] |
| --- | --- | --- | --- | --- | --- | --- | --- | --- | --- | --- |
| COCCN(C)CCOc1ccc(CN2C(=O)C(C(=O)Nc3ccc(C(F)(F)F)cc3-c3cc(C(F)(F)F)ncn3)=C(O)C3(CCCC3)N2C)c(F)c1F [Example 14, 7-[[2,3-Difluoro-4-[2-[2-methoxyethyl(methyl)amino]ethoxy]phenyl]methyl]-10-hydroxy-6-methyl-8-oxo-N-[4-(trifluoromethyl)-2-[6-(trifluoromethyl)pyrimidin-4-yl]phenyl]-6,7-diazaspiro[4.5]dec-9-ene-9-carboxamide] | 29 | 17 | 13 | 67 | 100 | 100 | 104 | 61 | 79 | – |
| COC[C@@H]1CCCN1CCOc1ccc(CN2C(=O)C(C(=O)Nc3ccc(C(F)(F)F)cc3-c3cc(C(F)(F)F)ncn3)=C(O)C3(CCC3)N2C)c(F)c1F [Example 345, 6-[[2,3-Difluoro-4-[2-[(2S)-2-(methoxymethyl)pyrrolidin-1-yl]ethoxy]phenyl]methyl]-9-hydroxy-5-methyl-7-oxo-N-[4-(trifluoromethyl)-2-[6-(trifluoromethyl)pyrimidin-4-yl]phenyl]-5,6-diazaspiro[3.5]non-8-ene-8-carboxamide] | 73 | – | – | – | – | – | – | – | – | 19 |
